# Where two headings read alike, the source gives them in different places.
# How the values were obtained:
# [1] = test system: growth of the small intestine in mice; format: in vivo; settings: for Small intestinal weight, Mean ± SD / Small intestinal weight/body weight, Mean ± SD: group mean
# From the text: Bioassay in Mice. Dose-Response Study of GLP-2 Derivatives. • Table 3. Model parameter estimates following nonlinear regression analysis of dose and small intestinal weights relative to body weight. • Table 4. Model parameter estimates following nonlinear regression analysis of dose and small intestinal weights. • Table 5. Body weight, small intestinal weight and relative small intestinal weight of mice treated with L17K(3-(tetradecanoylamino)propionyl)/K30R-[…]. • Table 6. […]. Body weight, small intestinal weight and relative small intestinal weight of mice treated with A2G-[…]. • Table 8. Body weight, small intestinal weight and relative small intestinal weight of control mice.
# The following GLP-2 derivatives and analog were tested: • 1. L17K(3-(tetradecanoylamino)propionyl)/K30R-[…]. • 2. L17K(3-(hexadecanoylamino)propionyl)/K30R-[…]. • 3. A2G-[…]. All derivatives were dissolved and diluted in buffer containing:
# Disodiumhydrogenphosphate 1.42 mg/ml, Mannitol 36.9 mg/ml, Phenol 5 mg/ml, pH 8.0.
# 189 female C57b1 mice were used in the study. All animals were divided into four groups:
# • Group 1: Controls • Group 2: L17K(3-(tetradecanoylamino)propionyl)/K30R-[…] • Group 3: L17K(3-(hexadecanoylamino)propionyl)/K30R-[…] • Group 4: A2G-[…] Dosing
# All animals received a daily subcutaneous injection of 100 pi for 10 days with the following doses:
# At Day 10 the animals were weighted before they were sacrificed. The intestine was carefully removed from each animal and the small intestine dissected, rinsed with saline and weighted.
# Body weight, small intestinal weight and small intestinal weight relative to body weight were reported for all animals and used generating the dose-response relationship. The treatment-induced increase in both absolute and relative small intestinal weight is calculated for each treatment group, since this is considered the pharmacologically relevant efficacy parameter.
# A generalised Michaelis-Menten model, with shape factor γ corresponding to the Hillslope in the semilogarithmic dose-response curve and E0 representing the background efficacy level at D=0, was used as dose-response model. Emax is the maximal effect observed and ED50 is the dose that gives an effect equal to 50% of Emax. The model was used because of the higher flexibility compared to a four parameter logistic dose-response model (1). The model was fitted to data using nonlinear regression in order to determine estimates for Emax, ED50, γ and E0.
# [formula] The goodness of fit was evaluated by visual inspection of plots showing observed data points together with fitted curves and residuals plots. Parameter estimates are presented together with CV % and 95% C.I.
# In order to account for the variability in the background efficacy level, control data were included in the nonlinear regression analysis as D=0 for all three treatment groups.
# The nonlinear regression analyses were performed using WinNonlin Professional, version 3.1, Pharsight. The nonlinear regression was performed using the Gauss-Newton (Levenberg and Hartley) algorithm.
# [2] = test system: Dextran sulfate (DS)-induced colitis; settings: 350 ng or 750 ng s.c. twice daily for 9-10 days, cited from earlier work
# [3] = background efficacy level at D=0, nonlinear regression of dose-response, mice, daily s.c. for 10 days
# [4] = dose level A, 33 μg daily s.c. for 10 days
# [5] = dose level B, 16.5 μg daily s.c. for 10 days
# [6] = dose level C, 8.25 μg daily s.c. for 10 days
# [7] = dose level D, 4.125 μg daily s.c. for 10 days
# [8] = dose level E, 2.063 μg daily s.c. for 10 days
# [9] = dose level F, 1.031 μg daily s.c. for 10 days
# [10] = dose level G, 0.512 μg daily s.c. for 10 days
# [11] = nonlinear regression of dose-response
# [12] = nonlinear regression of dose-response, mice, daily s.c. for 10 days
# [13] = treatment-induced increase, secondary parameter of curve fitting
compound,measurement,setting,value
CC[C@H](C)[C@H](NC(=O)[C@H](Cc1ccccc1)NC(=O)[C@H](CC(=O)O)NC(=O)[C@H](CCCNC(=N)N)NC(=O)[C@H](C)NC(=O)[C@H](C)NC(=O)[C@H](CC(C)C)NC(=O)[C@H](CC(N)=O)NC(=O)[C@H](CC(=O)O)NC(=O)[C@H](CC(C)C)NC(=O)[C@@H](NC(=O)[C@@H](NC(=O)[C@H](CC(N)=O)NC(=O)[C@H](CCSC)NC(=O)[C@H](CCC(=O)O)NC(=O)[C@H](CC(=O)O)NC(=O)[C@H](CO)NC(=O)[C@H](Cc1ccccc1)NC(=O)[C@H](CO)NC(=O)CNC(=O)[C@H](CC(=O)O)NC(=O)CNC(=O)[C@@H](N)Cc1c[nH]cn1)[C@@H](C)O)[C@@H](C)CC)C(=O)N[C@@H](CC(N)=O)C(=O)N[C@@H](Cc1c[nH]c2ccccc12)C(=O)N[C@@H](CC(C)C)C(=O)N[C@H](C(=O)N[C@@H](CCC(N)=O)C(=O)N[C@H](C(=O)N[C@@H](CCCCN)C(=O)N[C@H](C(=O)N[C@H](C(=O)N[C@@H](CC(=O)O)C(=O)O)[C@@H](C)O)[C@@H](C)CC)[C@@H](C)O)[C@@H](C)CC [A2G-GLP-2(1-33)],"E0, parameter estimate (CV %), small intestinal weight",[1]; [3],1.1095 (2.0) g
same,"E0, parameter estimate (CV %), small intestinal weight relative to body weight",[1]; [3],0.0425 (2.4)
same,"Small intestinal weight, Mean ± SD",[1]; [4],1.2300 ± 0.1602 g
same,"Small intestinal weight/body weight, Mean ± SD",[1]; [4],0.0501 ± 0.0057
same,"Small intestinal weight, Mean ± SD",[1]; [5],1.1775 ± 0.1337 g
same,"Small intestinal weight/body weight, Mean ± SD",[1]; [5],0.0489 ± 0.0042
same,"Small intestinal weight, Mean ± SD",[1]; [6],1.2463 ± 0.1235 g
same,"Small intestinal weight/body weight, Mean ± SD",[1]; [6],0.0484 ± 0.0052
same,"Small intestinal weight, Mean ± SD",[1]; [7],1.1713 ± 0.1687 g
same,"Small intestinal weight/body weight, Mean ± SD",[1]; [7],0.0448 ± 0.0054
same,"Small intestinal weight, Mean ± SD",[1]; [8],1.0750 ± 0.1124 g
same,"Small intestinal weight/body weight, Mean ± SD",[1]; [8],0.0443 ± 0.0027
same,"Small intestinal weight, Mean ± SD",[1]; [9],1.1688 ± 0.0923 g
same,"Small intestinal weight/body weight, Mean ± SD",[1]; [9],0.0461 ± 0.0041
same,"Small intestinal weight, Mean ± SD",[1]; [10],1.1075 ± 0.1014 g
same,"Small intestinal weight/body weight, Mean ± SD",[1]; [10],0.0436 ± 0.0036
same,"γ (shape factor, Hillslope), parameter estimate (CV %), small intestinal weight",[1]; [11],8.4169 (1869)
same,"γ (shape factor, Hillslope), parameter estimate (CV %), small intestinal weight relative to body weight",[1]; [11],0.6625 (109)
same,"Emax, parameter estimate (CV %), small intestinal weight",[1]; [12],1.2180 (2.3) g
same,"Emax, parameter estimate (CV %), small intestinal weight relative to body weight",[1]; [12],0.0548 (33.3)
same,"Emax − E0, parameter estimate (CV %), small intestinal weight",[1]; [13],0.1085 (34.8) g
same,"Emax − E0, parameter estimate (CV %), small intestinal weight relative to body weight",[1]; [13],0.0123 (151)
same,histology of colon,[2]; DS mice,"exhibited a greater proportion of intact mucosal epithelium, increased colon length, crypt depth and mucosal area"
same,body weight loss,[2]; mice receiving 5% DS in the drinking water,lost significantly less body weight
